The nature of data set [1]: Cytotoxicity against Vero cells (CPE monitoring, neutral red uptake). Format: cell-based. Particulars: African green monkey; for CC50 at 72 h: Vero cells, neutral red uptake, three independent experiments. The protocol: The cytotoxicity of the compounds against Vero cells was determined by monitoring the CPE. Vero cells (2.5 × 10^4/well) were plated in the wells of a 96-well plate. After 24 h, the cell monolayer was incubated with different concentrations of the test compounds for 72 h at 37 °C under a 5% CO2 atmosphere in a CO2 incubator and then monitored for CPE. The appropriate negative and positive controls were used. A neutral red uptake assay was used to assess cell viability. The half-maximal (50%) cytotoxic concentration (CC50) of each compound was determined from the dose-response curve.

The next data set has as its system ZIKV strain SZ01. The experiment in a line: CPE inhibition assay, anti-ZIKV activity in Vero cells. Format: cell-based, Zika virus. Particulars: for cell death rate compared with mock-treated ZIKV-infected cells: P < 0.05, two-tailed Student's t-test; for EC50: Zika virus, ZIKV strain SZ01, 68.6 TCID50, Vero cells, neutral red uptake, three independent experiments.

Data set [2] relates to YFV. Particulars: at low concentrations; cited from earlier work.
Data set [3] has as its system YFV. Particulars: cited from earlier work.

Like-named read-outs stand apart in the source and are kept apart here.

With `CC(=O)OCCOCn1ccnc(C(N)=O)c1=O` [Compound 2, 2-((3-carbamoyl-2-oxopyrazin-1(2H)-yl)methoxy) ethyl acetate], the CC50 – broadly, the concentration at which the toxic effect on the cells reaches its halfway point – at 72 h in data set [1] was more than 2000 µM.

The compound `COc1cnc(O)c(C(N)=O)n1` [Compound 12, 3-hydroxy-6-methoxypyrazine-2-carboxamide] had a cytotoxic concentration (CC50) at 72 h in data set [1] of more than 1000 µM.

Regarding `NC(=O)c1nccn(CC(O)CO)c1=O` (stereo not shown) [Compound 5, 4-(2,3-dihydroxypropyl)-3-oxo-3,4-dihydropyrazine-2-carboxamide], the CC50 at 72 h in data set [1] was more than 2000 µM.

Regarding `CCCCOc1cnc(O)c(C(N)=O)n1` [Compound 16, 6-butoxy-3-hydroxypyrazine-2-carboxamide], half-maximal cytotoxicity in data set [1] (CC50 at 72 h) was put at 310 ± 15.2 µM. Same read-out and setting: for `NC(=O)c1nc(OCCO)cnc1O` [Compound 19, 3-hydroxy-6-(2-hydroxyethoxy) pyrazine-2-carboxamide] the value was more than 1000 µM.

`CC(C)Oc1cnc(O)c(C(N)=O)n1` [Compound 15, 6-isopropoxypyrazine-3-hydroxy-2-carboxamide]: in data set [1], half-maximal cytotoxicity (CC50 at 72 h) was put at 345 ± 48.4 µM. On the same count and under the same terms, the same measure for `CCOc1cnc(O)c(C(N)=O)n1` [Compound 13, 6-ethoxy-3-hydroxypyrazine-2-carboxamide]: more than 500 µM.

On to `CCCCCCCCCCCCCCCCOCCCOP(=O)(O)CO[C@H](CO)Cn1ccc(N)nc1=O` [CMX001, brincidofovir], for which the CC50 in data set [1] is 11.3 ± 0.2 µM. In the data set on ZIKV strain SZ01, the anti-ZIKV activity entry is reported as “not active” and the “effect on ZIKV-induced CPE or cell death” value is on record as “little or no effect”.

Turning to `CCCCCOc1cnc(O)c(C(N)=O)n1` [Compound 17, 3-hydroxy-6-(pentyloxy)pyrazine-2-carboxamide], in data set [1], half-maximal cytotoxicity (CC50 at 72 h) was put at 260 ± 51.1 µM. The same measure, in the same setting: for `NC(=O)c1nccn(CC(O)COC(c2ccccc2)(c2ccccc2)c2ccccc2)c1=O` (stereo not shown) [Compound 4, 4-(2-hydroxy-3-(trityloxy)propyl)-3-oxo-3,4-dihydropyrazine-2-carboxamide] the value was more than 500 µM.

`CCCCCCCCOc1cnc(O)c(C(N)=O)n1` [Compound 18, 3-hydroxy-6-(octyloxy)pyrazine-2-carboxamide] showed a CC50 at 72 h in data set [1] of 245 ± 17.8 µM. For `NC(=O)c1ncn([C@@H]2O[C@H](CO)[C@@H](O)[C@H]2O)n1` [Ribavirin], in data set [1], the CC50 at 72 h is more than 2000 µM. For the same compound, the “effect on ZIKV-induced CPE or cell death” value in the data set with ZIKV strain SZ01 (Vero cells, ZIKV strain SZ01) is recorded as “little or no effect”. The anti-ZIKV activity entry in the data set on ZIKV strain SZ01 (at concentrations below 400 μM) is listed as “not active”.

As to `NC(=O)c1nc([N+](=O)[O-])cnc1O` [Compound 10, 6-nitropyrazine-3-hydroxy-2-carboxamide], the half-maximal cytotoxic concentration (CC50) at 72 h in data set [1] was more than 4000 µM.

With `NC(=O)c1nccn(C2OC(CO)C(O)C2O)c1=O` (stereo not shown) [Compound 6, 4-(3,4-dihydroxy-5-(hydroxymethyl)tetrahydrofuran-2-yl)-3-oxo-3,4-dihydropyrazine-2-carboxamide], the “activity in cell culture” value in the data set with YFV [2] is listed as “only slight activity”. Further, the CC50 at 72 h in data set [1] is more than 1000 µM. Besides, in the data set with YFV [3], the “efficacy in a hamster model of YFV infection” value was “effective”. In data set [1], `CCn1ccnc(C(N)=O)c1=O` [Compound 1, 4-ethyl-3-oxo-3,4-dihydropyrazine-2-carboxamide] showed a CC50 at 72 h of more than 1000 µM. Take `NC(=O)c1nc(F)cn(CC(O)COC(c2ccccc2)(c2ccccc2)c2ccccc2)c1=O` (stereo not shown) [Compound 8, 6-fluoro-4-(2-hydroxy-3-(trityloxy)propyl)-3-oxo-3,4-dihydropyrazine-2-carboxamide]: the CC50 at 72 h in data set [1] was more than 500 µM. On to `NC(=O)c1nccn(COCCO)c1=O` [Compound 3, 4-((2-hydroxyethoxy)methyl)-3-oxo-3,4-dihydropyrazine-2-carboxamide], for which the CC50 at 72 h in data set [1] is more than 1000 µM. In data set [1], `CCCOc1cnc(O)c(C(N)=O)n1` [Compound 14, 3-hydroxy-6-propoxypyrazine-2-carboxamide] registered a half-maximal cytotoxic concentration (CC50) at 72 h of more than 500 µM. Still for that read-out and setting: for `NC(=O)c1nc(F)cn(C2OC(CO)C(O)C2O)c1=O` (stereo not shown) [Compound 9, 4-(3,4-dihydroxy-5-(hydroxymethyl)tetrahydrofuran-2-yl)-6-fluoro-3-oxo-3,4-dihydropyrazine-2-carboxamide] the value was more than 1000 µM; for `COCCOc1cnc(O)c(C(N)=O)n1` [Compound 20, 3-hydroxy-6-(2-methoxyethoxy) pyrazine-2-carboxamide], more than 1000 µM. Take `NC(=O)c1nccnc1O` [Compound T-1105, 3-hydroxypyrazine-2-carboxamide]: the 50% cytotoxic concentration (CC50) at 72 h in data set [1] is more than 4000 µM. In the data set with ZIKV strain SZ01, the “cell death rate compared with mock-treated ZIKV-infected cells” value is recorded as “significantly reduced” and a half-maximal response (EC50) required 97.5 ± 6.8 µM. The compound `NC(=O)c1nc(Br)cnc1O` [Compound 11, 6-bromo-3-hydroxypyrazine-2-carboxamide] came in with a cytotoxic concentration (CC50) at 72 h in data set [1] of more than 2000 µM. The same measure, in the same setting: for `CC(=O)OCCOCn1cc(F)nc(C(N)=O)c1=O` [Compound 7, 2-((3-carbamoyl-5-fluoro-2-oxopyrazin-1(2H)-yl)methoxy) ethyl acetate] the value was more than 1000 µM. `NC(=O)c1nc(F)c[nH]c1=O` [Compound T-705, favipiravir] yielded a cytotoxic concentration (CC50) at 72 h in data set [1] of more than 3000 µM. In addition, in the data set on ZIKV strain SZ01, the “cell death rate compared with mock-treated ZIKV-infected cells” value is reported as “significantly reduced” and the EC50 (in general, the concentration needed to bring the measured effect to its halfway point) stood at 111 ± 13.1 µM.

These data come from PMC5563514, “Viral polymerase inhibitors T-705 and T-1105 are potential inhibitors of Zika virus replication” (Archives of Virology, 2017).
